Test results taken from PMC11722285, “Exploring the Potential of Malvidin and Echiodinin as Probable Antileishmanial Agents Through In Silico Analysis and In Vitro Efficacy” (Molecules, 2025).
Like-named read-outs stand apart in the source and are kept apart here.

Experiments:
Format in all cases: cell-based
[1] = test system: L. amazonensis stationary promastigotes; assay: In vitro antileishmanial activity, stationary promastigotes (MTT); settings: for IC50: 48 h, read-out: IC50 (µM) Stationary Promastigotes L. amazonensis; for Selectivity Index (SI) Stationary Promastigotes L. amazonensis: ratio between CC50 (macrophages) and IC50
Procedure: (§1) L. amazonensis (IFLA/BR/1967/PH-8), L. braziliensis (MHOM/BR/1975/M2903), and L. infantum (MHOM/BR/1970/BH46) were used as parasites. Stationary promastigotes were grown at a 24 °C in complete Schneider’s medium (Sigma-Aldrich, St. Louis, MO, USA), which was composed of medium plus 20% (v/v) heat-inactivated fetal bovine serum (FBS; Sigma-Aldrich, USA) and 20 mM L-glutamine with a pH of 7.4 [139]. To obtain the axenic amastigotes, 10^9 stationary promastigotes were washed three times in sterile phosphate-buffered saline (PBS 1X and incubated in 5 mL FBS for 48 h (L. amazonensis and L. braziliensis) and 72 h (L. infantum), respectively, at 37 °C. Parasites were washed in cold PBS 1x, and their morphology was evaluated after staining using the Giemsa method in an optical microscope, as previously described.
(§2) AmpB (0 to 10.8 µM; Sigma-Aldrich, USA) was used as control. Cell viability was assessed through 3-(4.5-dimethylthiazol-2-yl)-2.5-diphenyl tetrazolium bromide (Sigma-Aldrich, USA) method. Optical density (OD) values were measured in a microplate spectrophotometer (Molecular Devices, Spectra Max Plus, San Jose, CA, USA) at 570 nm. IC50 values were calculated by sigmoidal regression of dose–response curves in Microsoft Excel software (version 10.0). Two-tailed Student’s t-tests (p < 0.05) were used to compare IC50 values between malvidin and echioidinin, assessing significant differences in inhibitory activity.

[2] = test system: L. braziliensis stationary promastigotes; assay: as above; settings: for IC50: Leishmania braziliensis, 48 h, read-out: IC50 (µM) Stationary Promastigotes L. braziliensis; for Selectivity Index (SI) Stationary Promastigotes L. braziliensis: ratio between CC50 (macrophages) and IC50
Procedure: as §1, §2

[3] = test system: L. infantum stationary promastigotes; assay: as above; settings: for IC50: Leishmania infantum, 48 h, read-out: IC50 (µM) Stationary Promastigotes L. infantum; for Selectivity Index (SI) Stationary Promastigotes L. infantum: ratio between CC50 (macrophages) and IC50
Procedure: as §1, §2

[4] = test system: L. amazonensis axenic amastigotes; assay: In vitro antileishmanial activity, axenic amastigotes (MTT); settings: for IC50: 48 h, read-out: IC50 (µM) Axenic amastigotes L. amazonensis; for Selectivity Index (SI) Axenic amastigotes L. amazonensis: ratio between CC50 (macrophages) and IC50
Procedure: as §1, §2

[5] = test system: L. braziliensis axenic amastigotes; assay: as above; settings: for IC50: Leishmania braziliensis, 48 h, read-out: IC50 (µM) Axenic amastigotes L. braziliensis; for Selectivity Index (SI) Axenic amastigotes L. braziliensis: ratio between CC50 (macrophages) and IC50
Procedure: as §1, §2

[6] = test system: L. infantum axenic amastigotes; assay: as above; settings: for IC50: Leishmania infantum, 48 h, read-out: IC50 (µM) Axenic amastigotes L. infantum; for Selectivity Index (SI) Axenic amastigotes L. infantum: ratio between CC50 (macrophages) and IC50
Procedure: as §1, §2

[7] = test system: O+ human red blood cells; assay: Hemolytic activity; settings: 1 h
Procedure: (§3) Cytotoxicity was evaluated ex vivo in murine macrophages and human red blood cells, for which concentrations inhibiting 50% of macrophages (CC50) and red blood cells (RBC50) were determined. Briefly, murine cells (5 × 10^5) or a 5% human red blood cells suspension were incubated in the presence of malvidin (0 to 301.84 µM) or echioidinin (0 to 356.76 µM) AmpB (0 to 10.82 µM) was used as control. Cells were incubated in RPMI 1640 medium for 48 h (murine macrophages) or 1 h (red blood cells) at 37 °C in 5% CO2. Macrophage viability was assessed using the MTT method. The red blood cell suspension was centrifuged at 1000× g for 10 min at 4 °C, after which the percentage of cell lysis was evaluated spectrophotometrically at 570 nm. The hemolysis was determined by replacing the natural products with an equal volume of phosphate-buffered saline with a pH of 7.4 (PBS—negative control) or distilled water (positive control). CC50 and RBC50 values were calculated by sigmoidal regression of dose–response curves in Microsoft Excel software (version 10.0). SI was calculated as the ratio between CC50 and IC50 values.

[8] = test system: L. amazonensis-infected murine macrophages; assay: Treatment of infected macrophages; settings: 48 h
Procedure: (§4) To evaluate the efficacy of malvidin or echioidinin for treating infected macrophages, murine cells (5 × 10^5) were plated on round glass coverslips in 24-well plates in RPMI 1640 medium supplemented with 20% (v/v) FBS and 20 mM L-glutamine at a pH of 7.4 and incubated for 24 h at 37 °C in 5% CO2. Stationary promastigotes were added to the wells at a ratio of 10 parasites per macrophage, and cultures were incubated further for 48 h at 37 °C for 5% CO2. Free parasites were removed by extensive washing with RPMI 1640 medium, and infected macrophages were treated with malvidin (30.18, 60.37, and 120.74 µM), echioidinin (35.18, 70.36, and 140.72 µM), or AmpB (2.70 and 5.41 µM) for 48 h at […] in 5% CO2. After fixation with 4% paraformaldehyde, cells were washed and stained with Giemsa, and the infection percentage, the number of amastigotes per infected macrophage, and the reduction in the infection percentage were determined by counting 200 cells in triplicate, using an optical microscope.

[9] = test system: L. braziliensis-infected murine macrophages; assay: Treatment of infected macrophages; settings: 48 h
Procedure: as §4

[10] = test system: L. infantum-infected murine macrophages; assay: Treatment of infected macrophages; settings: 48 h
Procedure: as §4

[11] = Cytotoxicity assay in macrophages (MTT); settings: mouse, murine macrophages, mean ± SD
Procedure: as §3, with “Briefly, murine cells (5 × 10^5) or a 5% human red blood cells suspension were incubated in the presence of malvidin (0 to 301.84 µM) or echioidinin (0 to 356.76 µM) AmpB (0 to 10.82 µM) was used as control.” left out

[12] = Leishmania amazonensis, stationary promastigotes, mean ± SD
[13] = stationary promastigotes, mean ± SD
[14] = Leishmania amazonensis, axenic amastigotes, mean ± SD
[15] = lysis of 50% of O+ human red blood cells, mean ± SD

## C[C@@H]1[C@H](O)[C@@H](C)/C=C/C=C/C=C/C=C/C=C/C=C/C=C/[C@H](O[C@@H]2O[C@H](C)[C@@H](O)[C@H](N)[C@@H]2O)C[C@@H]2O[C@](O)(C[C@@H](O)C[C@@H](O)[C@H](O)CC[C@@H](O)C[C@@H](O)CC(=O)O[C@H]1C)C[C@H](O)[C@H]2C(=O)O [AmpB, amphotericin B, reference compound]
[1]; [12]
  IC50: 0.06 ± 0.01 µM
[1]
  Selectivity Index (SI) Stationary Promastigotes L. amazonensis: 12.60
[1]; [13]
  IC50: 0.08 ± 0.02 µM
[2]; [13]
  IC50: 0.09 ± 0.03 µM
[2]
  Selectivity Index (SI) Stationary Promastigotes L. braziliensis: 11.00
[3]; [13]
  IC50: 0.06 ± 0.01 µM
[3]
  Selectivity Index (SI) Stationary Promastigotes L. infantum: 14.70
[4]; [14]
  IC50: 0.1 ± 0.03 µM
[4]; axenic amastigotes, mean ± SD
  IC50: 0.09 ± 0.02 µM
[4]
  Selectivity Index (SI) Axenic amastigotes L. amazonensis: 11.00
[5]; axenic amastigotes, mean ± SD
  IC50: 0.1 ± 0.03 µM
[5]
  Selectivity Index (SI) Axenic amastigotes L. braziliensis: 9.80
[6]; axenic amastigotes, mean ± SD
  IC50: 0.08 ± 0.02 µM
[6]
  Selectivity Index (SI) Axenic amastigotes L. infantum: 12.60
[7]; human
  RBC50: 14.28 ± 1 µM
[8]; 2.71 µM
  Infection After Treatment (%): 34.30%
  Infectiveness Reduction (%): 62.84%
  Number of Amastigotes per Macrophage: 2.60
[8]; 5.41 µM
  Infection After Treatment (%): 24.20%
  Infectiveness Reduction (%): 73.78%
  Number of Amastigotes per Macrophage: 2.80
[9]; 2.71 µM
  Infection After Treatment (%): 24.40%
  Infectiveness Reduction (%): 64.48%
  Number of Amastigotes per Macrophage: 2.60
[9]; 5.41 µM
  Infection After Treatment (%): 16.50%
  Infectiveness Reduction (%): 75.98%
  Number of Amastigotes per Macrophage: 2.40
[10]; 2.71 µM
  Infection After Treatment (%): 28.70%
  Infectiveness Reduction (%): 61.48%
  Number of Amastigotes per Macrophage: 3.00
[10]; 5.41 µM
  Infection After Treatment (%): 19.80%
  Infectiveness Reduction (%): 73.42%
  Number of Amastigotes per Macrophage: 2.50

## COc1cc(O)c2c(=O)cc(-c3ccccc3O)oc2c1 [Echioidinin, echioidinin]
[1]; [12]
  IC50: 273 ± 29 µM
[1]
  Selectivity Index (SI) Stationary Promastigotes L. amazonensis: 10.80
[2]; [13]
  IC50: 251 ± 22 µM
[2]
  Selectivity Index (SI) Stationary Promastigotes L. braziliensis: 12.10
[3]; [13]
  IC50: 213 ± 16 µM
[3]
  Selectivity Index (SI) Stationary Promastigotes L. infantum: 14.00
[4]; [14]
  IC50: 336 ± 19 µM
[4]
  Selectivity Index (SI) Axenic amastigotes L. amazonensis: 8.90
[5]; axenic amastigotes, mean ± SD
  IC50: 293 ± 20 µM
[5]
  Selectivity Index (SI) Axenic amastigotes L. braziliensis: 10.30
[6]; axenic amastigotes, mean ± SD
  IC50: 262 ± 17 µM
[6]
  Selectivity Index (SI) Axenic amastigotes L. infantum: 11.60
[11]
  CC50 at 48 h: 3010 ± 114 µM
[7]; [15]
  RBC50: 3400.76 ± 78 µM
[8]; 35.18 µM
  Infection After Treatment (%): 80.20%
  Infectiveness Reduction (%): 13.11%
  Number of Amastigotes per Macrophage: 5.40
[8]; 70.36 µM
  Infection After Treatment (%): 71.80%
  Infectiveness Reduction (%): 22.21%
  Number of Amastigotes per Macrophage: 3.70
[8]; 140.72 µM
  Infection After Treatment (%): 63.40%
  Infectiveness Reduction (%): 31.31%
  Number of Amastigotes per Macrophage: 6.30
[9]; 35.18 µM
  Infection After Treatment (%): 56.50%
  Infectiveness Reduction (%): 17.76%
  Number of Amastigotes per Macrophage: 6.40
[9]; 70.36 µM
  Infection After Treatment (%): 50.80%
  Infectiveness Reduction (%): 26.06%
  Number of Amastigotes per Macrophage: 3.70
[9]; 140.72 µM
  Infection After Treatment (%): 43.20%
  Infectiveness Reduction (%): 37.12%
  Number of Amastigotes per Macrophage: 3.70
[10]; 35.18 µM
  Infection After Treatment (%): 65.50%
  Infectiveness Reduction (%): 12.08%
  Number of Amastigotes per Macrophage: 4.80
[10]; 70.36 µM
  Infection After Treatment (%): 58.70%
  Infectiveness Reduction (%): 21.21%
  Number of Amastigotes per Macrophage: 2.80
[10]; 140.72 µM
  Infection After Treatment (%): 50.70%
  Infectiveness Reduction (%): 31.95%
  Number of Amastigotes per Macrophage: 4.20

## COc1cc(-c2[o+]c3cc(O)cc(O)c3cc2O)cc(OC)c1O [Malvidin, malvidin]
[1]; Leishmania amazonensis
  IC50: 198 ± 17 µM
[1]
  Selectivity Index (SI) Stationary Promastigotes L. amazonensis: 14.70
[2]
  IC50: 164 ± 19 µM
  Selectivity Index (SI) Stationary Promastigotes L. braziliensis: 17.60
[3]
  IC50: 141 ± 26 µM
  Selectivity Index (SI) Stationary Promastigotes L. infantum: 20.70
[4]; Leishmania amazonensis
  IC50: 258 ± 17 µM
[4]
  Selectivity Index (SI) Axenic amastigotes L. amazonensis: 11.30
[5]
  IC50: 227.9 ± 1 µM
  Selectivity Index (SI) Axenic amastigotes L. braziliensis: 12.70
[6]
  IC50: 174 ± 19 µM
  Selectivity Index (SI) Axenic amastigotes L. infantum: 16.70
[6]; listed as malvidin
  Selectivity Index (SI) Axenic amastigotes L. infantum: 14.70
[11]
  CC50 at 48 h: 2920 ± 80 µM
[7]; [15]
  RBC50: 3120.13 ± 107 µM
[8]; 30.18 µM
  Infection After Treatment (%): 75.60%
  Infectiveness Reduction (%): 18.09%
  Number of Amastigotes per Macrophage: 3.30
[8]; 60.37 µM
  Infection After Treatment (%): 61.10%
  Infectiveness Reduction (%): 33.80%
  Number of Amastigotes per Macrophage: 2.80
[8]; 120.74 µM
  Infection After Treatment (%): 59.30%
  Infectiveness Reduction (%): 35.75%
  Number of Amastigotes per Macrophage: 3.80
[9]; 30.18 µM
  Infection After Treatment (%): 52.10%
  Infectiveness Reduction (%): 24.16%
  Number of Amastigotes per Macrophage: 4.40
[9]; 60.37 µM
  Infection After Treatment (%): 48.70%
  Infectiveness Reduction (%): 29.11%
  Number of Amastigotes per Macrophage: 5.40
[9]; 120.74 µM
  Infection After Treatment (%): 39.80%
  Infectiveness Reduction (%): 42.07%
  Number of Amastigotes per Macrophage: 3.30
[10]; 30.18 µM
  Infection After Treatment (%): 61.20%
  Infectiveness Reduction (%): 17.85%
  Number of Amastigotes per Macrophage: 4.70
[10]; 60.37 µM
  Infection After Treatment (%): 55.60%
  Infectiveness Reduction (%): 25.37%
  Number of Amastigotes per Macrophage: 3.70
[10]; 120.74 µM
  Infection After Treatment (%): 49.80%
  Infectiveness Reduction (%): 33.15%
  Number of Amastigotes per Macrophage: 2.70
